Literature values as cited in patent US20100029676A1 (priority 2005, published 2010).

Test system: imatinib-resistant BCR-ABL mutants
Conditions: number of mutants active / tested; Weisberg et al.

## Cc1cn(-c2cc(NC(=O)c3ccc(C)c(Nc4nccc(-c5cccnc5)n4)c3)cc(C(F)(F)F)c2)cn1 [AMN107]
  imatinib-resistant BCR-ABL mutants against which significantly active: 32/33
